Tests used:
[1] = Growth inhibition of human Hs 578T cells at 10 uM after 48 hrs by sulforhodamine B assay; type: functional; details: values are per cent of control
[2] = tested on: Rattus norvegicus; experiment: Antiinflammatory activity against carrageenan-induced paw edema in Wister albino rat assessed as inhibition of edema at 50 mg/kg, ip administered 1 hr prior to carrageenan challenge measured after 1 hr relative to control; type: functional; details: route intraperitoneal
[3] = tested on: Rattus norvegicus; experiment: Antiinflammatory activity against carrageenan-induced paw edema in Wister albino rat assessed as inhibition of edema at 50 mg/kg, ip administered 1 hr prior to carrageenan challenge measured after 4 hrs relative to indomethacin; type: functional; details: route intraperitoneal
[4] = tested on: HCT-15; experiment: Growth inhibition of human HCT15 cells at 10 uM after 48 hrs by sulforhodamine B assay; type: functional; details: HCT-15, 48 h, values are per cent of control
[5] = tested on: NCI-H460; experiment: Growth inhibition of human NCI-H460 cells at 10 uM after 48 hrs by sulforhodamine B assay; type: functional; details: NCI-H460, 48 h, values are per cent of control
[6] = tested on: HT-29; experiment: Growth inhibition of human HT-29 cells at 10 uM after 48 hrs by sulforhodamine B assay; type: functional; details: HT-29, 48 h, values are per cent of control
[7] = tested on: OVCAR-8; experiment: Growth inhibition of human OVCAR8 cells at 10 uM after 48 hrs by sulforhodamine B assay; type: functional; details: OVCAR-8, 48 h, read-out: GI
[8] = tested on: RPMI-8226; experiment: Growth inhibition of human RPMI8226 cells at 10 uM after 48 hrs by sulforhodamine B assay; type: functional; details: RPMI-8226, 48 h, read-out: GI
[9] = tested on: MOLT-4; experiment: Growth inhibition of human MOLT4 cells at 10 uM after 48 hrs by sulforhodamine B assay; type: functional; details: MOLT-4, 48 h, values are per cent of control
[10] = tested on: K562; experiment: Growth inhibition of human K562 cells at 10 uM after 48 hrs by sulforhodamine B assay; type: functional; details: K562, 48 h, values are per cent of control
[11] = tested on: NCI/ADR-RES; experiment: Growth inhibition of human NCI/ADR-RES cells at 10 uM after 48 hrs by sulforhodamine B assay; type: functional; details: values are per cent of control
[12] = tested on: HOP-62; experiment: Growth inhibition of human HOP62 cells at 10 uM after 48 hrs by sulforhodamine B assay; type: functional; details: HOP-62, 48 h, values are per cent of control
[13] = tested on: HCC 2998; experiment: Growth inhibition of human HCC2998 cells at 10 uM after 48 hrs by sulforhodamine B assay; type: functional; details: HCC 2998, 48 h, values are per cent of control
[14] = tested on: SN12C; experiment: Growth inhibition of human SN12C cells at 10 uM after 48 hrs by sulforhodamine B assay; type: functional; details: values are per cent of control
[15] = tested on: UACC-62; experiment: Growth inhibition of human UACC62 cells at 10 uM after 48 hrs by sulforhodamine B assay; type: functional; details: UACC-62, 48 h, values are per cent of control
[16] = tested on: Rattus norvegicus; experiment: Antiinflammatory activity against carrageenan-induced paw edema in Wister albino rat assessed as inhibition of edema at 50 mg/kg, ip administered 1 hr prior to carrageenan challenge measured after 2 hrs relative to control; type: functional; details: route intraperitoneal
[17] = tested on: SF-268; experiment: Growth inhibition of human SF268 cells at 10 uM after 48 hrs by sulforhodamine B assay; type: functional; details: SF-268, 48 h, values are per cent of control
[18] = tested on: ACHN; experiment: Growth inhibition of human ACHN cells at 10 uM after 48 hrs by sulforhodamine B assay; type: functional; details: values are per cent of control
[19] = tested on: SK-OV-3; experiment: Growth inhibition of human SKOV3 cells at 10 uM after 48 hrs by sulforhodamine B assay; type: functional; details: SK-OV-3, 48 h, values are per cent of control
[20] = tested on: SW-620; experiment: Growth inhibition of human SW620 cells at 10 uM after 48 hrs by sulforhodamine B assay; type: functional; details: SW-620, 48 h, values are per cent of control
[21] = tested on: MDA-MB-231; experiment: Growth inhibition of human MDA-MB-231 cells at 10 uM after 48 hrs by sulforhodamine B assay; type: functional; details: MDA-MB-231, 48 h, values are per cent of control
[22] = tested on: NCI-H23; experiment: Growth inhibition of human NCI-H23 cells at 10 uM after 48 hrs by sulforhodamine B assay; type: functional; details: NCI-H23, 48 h, values are per cent of control
[23] = tested on: CCRF-CEM; experiment: Growth inhibition of human CCRF-CEM cells at 10 uM after 48 hrs by sulforhodamine B assay; type: functional; details: values are per cent of control
[24] = tested on: KM12; experiment: Growth inhibition of human KM12 cells at 10 uM after 48 hrs by sulforhodamine B assay; type: functional; details: KM12, 48 h, values are per cent of control
[25] = tested on: SK-MEL-28; experiment: Growth inhibition of human SK-MEL-28 cells at 10 uM after 48 hrs by sulforhodamine B assay; type: functional; details: SK-MEL-28, 48 h, values are per cent of control
[26] = tested on: COLO 205; experiment: Growth inhibition of human COLO205 cells at 10 uM after 48 hrs by sulforhodamine B assay; type: functional; details: COLO 205, 48 h, values are per cent of control
[27] = tested on: MCF7; experiment: Growth inhibition of human MCF7 cells at 10 uM after 48 hrs by sulforhodamine B assay; type: functional; details: MCF7, 48 h, values are per cent of control
[28] = tested on: TK-10; experiment: Growth inhibition of human TK10 cells at 10 uM after 48 hrs by sulforhodamine B assay; values are per cent of control; details: TK-10, 48 h
[29] = tested on: OVCAR-4; experiment: Growth inhibition of human OVCAR4 cells at 10 uM after 48 hrs by sulforhodamine B assay; type: functional; details: OVCAR-4, 48 h, values are per cent of control
[30] = tested on: HOP-92; experiment: Growth inhibition of human HOP92 cells at 10 uM after 48 hrs by sulforhodamine B assay; type: functional; details: HOP-92, 48 h, read-out: GI
[31] = tested on: SNB-19; experiment: Growth inhibition of human SNB19 cells at 10 uM after 48 hrs by sulforhodamine B assay; type: functional; details: SNB-19, 48 h, values are per cent of control
[32] = tested on: LOX IMVI; experiment: Growth inhibition of human LOXIMVI cells at 10 uM after 48 hrs by sulforhodamine B assay; type: functional; details: values are per cent of control
[33] = tested on: MDA-MB-435; experiment: Growth inhibition of human MDA-MB-435 cells at 10 uM after 48 hrs by sulforhodamine B assay; type: functional; details: MDA-MB-435, 48 h, values are per cent of control
[34] = tested on: SF-539; experiment: Growth inhibition of human SF539 cells at 10 uM after 48 hrs by sulforhodamine B assay; type: functional; details: SF-539, 48 h, values are per cent of control
[35] = tested on: UO-31; experiment: Growth inhibition of human UO31 cells at 10 uM after 48 hrs by sulforhodamine B assay; type: functional; details: UO-31, 48 h, values are per cent of control
[36] = tested on: DU-145; experiment: Growth inhibition of human DU145 cells at 10 uM after 48 hrs by sulforhodamine B assay; type: functional; details: DU-145, 48 h, values are per cent of control
[37] = tested on: SK-MEL-5; experiment: Growth inhibition of human SK-MEL-5 cells at 10 uM after 48 hrs by sulforhodamine B assay; type: functional; details: SK-MEL-5, 48 h, values are per cent of control
[38] = tested on: A498; experiment: Growth inhibition of human A498 cells at 10 uM after 48 hrs by sulforhodamine B assay; type: functional; details: A498, 48 h, values are per cent of control

Row | SMILES | growth, % of control at 10 µM [1] [%] | inhibition in vivo at 50 mg/kg [2] [%] | activity relative to indomethacin [3] [%] | growth, % of control at 10 µM [4] [%] | growth, % of control at 10 µM [5] [%] | growth, % of control at 10 µM [6] [%] | inhibition of growth at 10 µM [7] [%] | inhibition of growth at 10 µM [8] [%] | growth, % of control at 10 µM [9] [%] | growth, % of control at 10 µM [10] [%] | growth, % of control at 10 µM [11] [%] | growth, % of control at 10 µM [12] [%] | growth, % of control at 10 µM [13] [%] | growth, % of control at 10 µM [14] [%] | growth, % of control at 10 µM [15] [%] | inhibition in vivo at 50 mg/kg [16] [%] | growth, % of control at 10 µM [17] [%] | growth, % of control at 10 µM [18] [%] | growth, % of control at 10 µM [19] [%] | growth, % of control at 10 µM [20] [%] | other results
1 | [3H]C([3H])([3H])N1C(=O)[C@@]2(c3ccccc31)N(C)C[C@@H](c1cccs1)[C@@]21Cc2ccccc2C1=O | 21.1 | 33 | 27 | 108 | 107 | 97.5 | 64 | 87.9 | 72.2 | 72.5 | 98.5 | 99.9 | 104 | 105 | 75.3 | 10.8 | 101 | 98.4 | 103 | 89.1 | growth, % of control at 10 µM [21]: 84.3%; growth, % of control at 10 µM [22]: 92%; growth, % of control at 10 µM [23]: 90.5%; growth, % of control at 10 µM [24]: 107%; growth, % of control at 10 µM [25]: 105%; growth, % of control at 10 µM [26]: 107%; growth, % of control at 10 µM [27]: 103%; growth, % of control at 10 µM [28]: 149%; growth, % of control at 10 µM [29]: 100%; inhibition of growth at 10 µM [30]: 69.2%; growth, % of control at 10 µM [31]: 96.2%; growth, % of control at 10 µM [32]: 85.3%; growth, % of control at 10 µM [33]: 111%; growth, % of control at 10 µM [34]: 112%; growth, % of control at 10 µM [35]: 93.5%; growth, % of control at 10 µM [36]: 121%; growth, % of control at 10 µM [37]: 112%; growth, % of control at 10 µM [38]: 103%
2 | [3H]N1C(=O)[C@@]2(c3ccccc31)N(C)C[C@@H](c1ccc(Cl)cc1)[C@@]21Cc2ccccc2C1=O | -4.92 | 27.9 | 32 | 82.5 | 94.7 | 73.8 | 69.2 | 36.6 | 57 | 58.5 | 64 | 87.5 | 95.7 | 79.5 | 45.8 | 28.4 | 90 | 80.5 | 91 | 76.2 | growth, % of control at 10 µM [21]: 75.1%; growth, % of control at 10 µM [22]: 75%; growth, % of control at 10 µM [23]: 74.7%; growth, % of control at 10 µM [24]: 81.2%; growth, % of control at 10 µM [25]: 112%; growth, % of control at 10 µM [26]: 84.8%; growth, % of control at 10 µM [27]: 109%; growth, % of control at 10 µM [28]: 144%; growth, % of control at 10 µM [29]: 74.5%; inhibition of growth at 10 µM [30]: 50.2%; growth, % of control at 10 µM [31]: 89.9%; growth, % of control at 10 µM [32]: 65.2%; growth, % of control at 10 µM [33]: 95.1%; growth, % of control at 10 µM [34]: 107%; growth, % of control at 10 µM [35]: 62.7%; growth, % of control at 10 µM [36]: 103%; growth, % of control at 10 µM [37]: 112%; growth, % of control at 10 µM [38]: 61.9%
